Experimental data: publication PMC6154534, “New Benzimidazole-1,2,4-Triazole Hybrid Compounds: Synthesis, Anticandidal Activity and Cytotoxicity Evaluation” (Molecules : A Journal of Synthetic Chemistry and Natural …, 2017)
Converted amounts (≈) assume the structure as drawn.

What was measured:
C. albicans (ATCC 24433) = test: Anticandidal broth microdilution (EUCAST EDef 7.1), resazurin fluorometric readout; format: cell-based; details: Candida albicans, ATCC24433; ATCC 24433, RPMI pH 7, 24 h incubation
Protocol: (§1) Synthesized compounds (5a-5ad) were evaluated for anticandidal activity against C. albicans (ATCC 24433), C. krusei (ATCC 6258), C. parapsilosis (ATCC 22019) and C. [NT] 90030). MIC50 values were evaluated via fluorometric measurements, using resazurin solution [56, 57]. […] [NT] 90030). MIC readings were carried out twice for each chemical agent. The yeasts were maintained in RPMI after overnight incubation at 37 °C. The inocula of test microorganisms adjusted to match the turbidity of a MacFarland 0.5 standard tube as determined with a spectrophotometer and the final inoculum size was 0.5-2.5 × 10^5 cfu/mL for antifungal assay. Testing was carried out in RPMI at pH = 7 and the two-fold serial dilutions technique was applied. The last well on the microplates containing only inoculated broth was kept as controls and the last well with no growth of microorganism was recorded to represent the MIC50 expressed in μg/mL. For the antifungal assays, the compounds were dissolved in DMSO. […] The completed plates were incubated for 24 h. At the end of the incubation, resazurin (20 μg/mL) was added into each well to control whether the growth in wells. Then, plates were allowed to incubate for 2 h. MIC50 values were determined using a microplate reader at […].

[1] = tested on: C. parapsilosis (ATCC 22019); test: as above; format: cell-based; details: Lodderomyces parapsilosis, ATCC22019; ATCC 22019, RPMI pH 7, 24 h incubation; read-out: MIC50 C. parapsilopsis
Protocol: as §1

C. krusei (ATCC 6258) = test: as above; format: cell-based; details: Pichia kudriavzevii, ATCC6258; ATCC 6258, RPMI pH 7, 24 h incubation
Protocol: as §1

C. glabrata (ATCC 90030) = test: as above; format: cell-based; details: Nakaseomyces glabratus, ATCC90030; ATCC 90030, RPMI pH 7, 24 h incubation
Protocol: as §1

Candida species = test: Anticandidal broth microdilution, results summarised over all strains; format: cell-based; details: summary over all four Candida strains
Protocol: as §1

Compound	melting point [°C]	MIC50 (C. albicans (ATCC 24433)) [µg/mL]	MIC50 [1] [µg/mL]	MIC50 (C. krusei (ATCC 6258)) [µg/mL]	MIC50 (C. glabrata (ATCC 90030)) [µg/mL]	anticandidal activity against Candida strains (in words) (Candida species)	MIC50 (Candida species; Candida, read-out: MIC50 against Candida species) [µg/mL]
Cn1c(SCC(=O)c2ccccc2)nnc1-c1ccc(-c2nc3ccccc3[nH]2)cc1 [Compound 5a, 2-((5-(4-(1H-Benzimidazol-2-yl)phenyl)-4-methyl-4H-1,2,4-triazol-3-yl)thio)-1-phenylethan-1-one]	269.5	100 (≈ 235 µM)	100 (≈ 235 µM)	100 (≈ 235 µM)	100 (≈ 235 µM)	–	–
CCn1c(SCC(=O)c2ccc(Cl)cc2)nnc1-c1ccc(-c2nc3ccc(F)cc3[nH]2)cc1 [Compound 5aa, 1-(4-Chlorophenyl)-2-((4-ethyl-5-(4-(6-fluoro-1H-benzimidazol-2-yl)phenyl)-4H-1,2,4-triazol-3-yl)thio)ethan-1-one]	241.4	6.25 (≈ 12.7 µM)	12.5 (≈ 25.4 µM)	6.25 (≈ 12.7 µM)	12.5 (≈ 25.4 µM)	did not show strong activity	–
CCn1c(SCC(=O)c2ccc(Cl)cc2Cl)nnc1-c1ccc(-c2nc3ccc(F)cc3[nH]2)cc1 [Compound 5ac, 1-(2,4-Dichlorophenyl)-2-((4-ethyl-5-(4-(6-fluoro-1H-benzimidazol-2-yl)phenyl)-4H-1,2,4-triazol-3-yl)thio)ethan-1-one]	223.3	1.56 (≈ 2.96 µM)	1.56 (≈ 2.96 µM)	1.56 (≈ 2.96 µM)	1.56 (≈ 2.96 µM)	–	1.56 to 3.12 (≈ 2.96 to 5.93 µM)
Cn1c(SCC(=O)c2ccc(Cl)cc2)nnc1-c1ccc(-c2nc3ccccc3[nH]2)cc1 [Compound 5b, 2-((5-(4-(1H-Benzimidazol-2-yl)phenyl)-4-methyl-4H-1,2,4-triazol-3-yl)thio)-1-(4-chlorophenyl)ethan-1-one]	280.6	25 (≈ 54.4 µM)	50 (≈ 109 µM)	50 (≈ 109 µM)	50 (≈ 109 µM)	–	–
Cn1c(SCC(=O)c2ccc(F)cc2)nnc1-c1ccc(-c2nc3ccccc3[nH]2)cc1 [Compound 5c, 2-((5-(4-(1H-Benzimidazol-2-yl)phenyl)-4-methyl-4H-1,2,4-triazol-3-yl)thio)-1-(4-fluorophenyl)ethan-1-one]	259.8	12.5 (≈ 28.2 µM)	12.5 (≈ 28.2 µM)	25 (≈ 56.4 µM)	25 (≈ 56.4 µM)	–	–
Cn1c(SCC(=O)c2ccc(Cl)cc2Cl)nnc1-c1ccc(-c2nc3ccccc3[nH]2)cc1 [Compound 5d, 2-((5-(4-(1H-Benzimidazol-2-yl)phenyl)-4-methyl-4H-1,2,4-triazol-3-yl)thio)-1-(2,4-dichlorophenyl)ethan-1-one]	234.7	25 (≈ 50.6 µM)	25 (≈ 50.6 µM)	50 (≈ 101 µM)	50 (≈ 101 µM)	–	–
Cn1c(SCC(=O)c2ccc(F)cc2F)nnc1-c1ccc(-c2nc3ccccc3[nH]2)cc1 [Compound 5e, 2-((5-(4-(1H-Benzimidazol-2-yl)phenyl)-4-methyl-4H-1,2,4-triazol-3-yl)thio)-1-(2,4-difluorophenyl)ethan-1-one]	256.2	12.5 (≈ 27.1 µM)	25 (≈ 54.2 µM)	25 (≈ 54.2 µM)	25 (≈ 54.2 µM)	–	–
CCn1c(SCC(=O)c2ccccc2)nnc1-c1ccc(-c2nc3ccccc3[nH]2)cc1 [Compound 5f, 2-((5-(4-(1H-Benzimidazol-2-yl)phenyl)-4-ethyl-4H-1,2,4-triazol-3-yl)thio)-1-phenylethan-1-one]	220.9	100 (≈ 228 µM)	100 (≈ 228 µM)	100 (≈ 228 µM)	100 (≈ 228 µM)	–	–
CCn1c(SCC(=O)c2ccc(Cl)cc2)nnc1-c1ccc(-c2nc3ccccc3[nH]2)cc1 [Compound 5g, 2-((5-(4-(1H-Benzimidazol-2-yl)phenyl)-4-ethyl-4H-1,2,4-triazol-3-yl)thio)-1-(4-chlorophenyl)ethan-1-one]	242.6	25 (≈ 52.7 µM)	50 (≈ 105 µM)	25 (≈ 52.7 µM)	50 (≈ 105 µM)	–	–
CCn1c(SCC(=O)c2ccc(F)cc2)nnc1-c1ccc(-c2nc3ccccc3[nH]2)cc1 [Compound 5h, 2-((5-(4-(1H-Benzimidazol-2-yl)phenyl)-4-ethyl-4H-1,2,4-triazol-3-yl)thio)-1-(4-fluorophenyl)ethan-1-one]	231.3	12.5 (≈ 27.3 µM)	25 (≈ 54.6 µM)	12.5 (≈ 27.3 µM)	25 (≈ 54.6 µM)	–	–
CCn1c(SCC(=O)c2ccc(Cl)cc2Cl)nnc1-c1ccc(-c2nc3ccccc3[nH]2)cc1 [Compound 5i, 2-((5-(4-(1H-Benzimidazol-2-yl)phenyl)-4-ethyl-4H-1,2,4-triazol-3-yl)thio)-1-(2,4-dichlorophenyl)ethan-1-one]	221.7	25 (≈ 49.2 µM)	50 (≈ 98.3 µM)	50 (≈ 98.3 µM)	50 (≈ 98.3 µM)	–	–
CCn1c(SCC(=O)c2ccc(F)cc2F)nnc1-c1ccc(-c2nc3ccccc3[nH]2)cc1 [Compound 5j, 2-((5-(4-(1H-Benzimidazol-2-yl)phenyl)-4-ethyl-4H-1,2,4-triazol-3-yl)thio)-1-(2,4-difluorophenyl)ethan-1-one]	238.2	12.5 (≈ 26.3 µM)	25 (≈ 52.6 µM)	12.5 (≈ 26.3 µM)	25 (≈ 52.6 µM)	–	–
Cn1c(SCC(=O)c2ccccc2)nnc1-c1ccc(-c2nc3ccc(Cl)cc3[nH]2)cc1 [Compound 5k, 2-((5-(4-(6-Chloro-1H-benzimidazol-2-yl)phenyl)-4-methyl-4H-1,2,4-triazol-3-yl)thio)-1-phenylethan-1-one]	260	12.5 (≈ 27.2 µM)	12.5 (≈ 27.2 µM)	25 (≈ 54.4 µM)	25 (≈ 54.4 µM)	–	–
Cn1c(SCC(=O)c2ccc(Cl)cc2)nnc1-c1ccc(-c2nc3ccc(Cl)cc3[nH]2)cc1 [Compound 5l, 2-((5-(4-(6-Chloro-1H-benzimidazol-2-yl)phenyl)-4-methyl-4H-1,2,4-triazol-3-yl)thio)-1-(4-chlorophenyl)ethan-1-one]	236.9	6.25 (≈ 12.6 µM)	12.5 (≈ 25.3 µM)	6.25 (≈ 12.6 µM)	12.5 (≈ 25.3 µM)	–	–
Cn1c(SCC(=O)c2ccc(Cl)cc2Cl)nnc1-c1ccc(-c2nc3ccc(F)cc3[nH]2)cc1 [Compound 5x, 1-(2,4-Dichlorophenyl)-2-((5-(4-(6-fluoro-1H-benzimidazol-2-yl)phenyl)-4-methyl-4H-1,2,4-triazol-3-yl)thio)ethan-1-one]	228.5	3.12 (≈ 6.09 µM)	3.12 (≈ 6.09 µM)	3.12 (≈ 6.09 µM)	1.56 (≈ 3.04 µM)	–	–
CCn1c(SCC(=O)c2ccccc2)nnc1-c1ccc(-c2nc3ccc(F)cc3[nH]2)cc1 [Compound 5z, 2-((4-Ethyl-5-(4-(6-fluoro-1H-benzimidazol-2-yl)phenyl)-4H-1,2,4-triazol-3-yl)thio)-1-phenylethan-1-one]	253.6	12.5 (≈ 27.3 µM)	50 (≈ 109 µM)	50 (≈ 109 µM)	25 (≈ 54.6 µM)	–	–
OC(Cn1cncn1)(Cn1cncn1)c1ccc(F)cc1F [Fluconazole, reference compound]	–	0.78 (≈ 2.55 µM)	0.78 (≈ 2.55 µM)	1.56 (≈ 5.09 µM)	1.56 (≈ 5.09 µM)	–	–
CC(=O)N1CCN(c2ccc(OCC3COC(Cn4ccnc4)(c4ccc(Cl)cc4Cl)O3)cc2)CC1 (stereo not drawn) [Ketoconazole, reference compound]	–	0.78 (≈ 1.47 µM)	1.56 (≈ 2.94 µM)	1.56 (≈ 2.94 µM)	1.56 (≈ 2.94 µM)	–	–
